The target of this test is Integrin alpha-4/beta-1 (Homo sapiens, UniProt P05556+P13612). Nature of the test: Antagonist activity at alpha4beta1 integrin. The format is functional.
Integrin alpha-4/beta-1, sequence (P05556 whole entry): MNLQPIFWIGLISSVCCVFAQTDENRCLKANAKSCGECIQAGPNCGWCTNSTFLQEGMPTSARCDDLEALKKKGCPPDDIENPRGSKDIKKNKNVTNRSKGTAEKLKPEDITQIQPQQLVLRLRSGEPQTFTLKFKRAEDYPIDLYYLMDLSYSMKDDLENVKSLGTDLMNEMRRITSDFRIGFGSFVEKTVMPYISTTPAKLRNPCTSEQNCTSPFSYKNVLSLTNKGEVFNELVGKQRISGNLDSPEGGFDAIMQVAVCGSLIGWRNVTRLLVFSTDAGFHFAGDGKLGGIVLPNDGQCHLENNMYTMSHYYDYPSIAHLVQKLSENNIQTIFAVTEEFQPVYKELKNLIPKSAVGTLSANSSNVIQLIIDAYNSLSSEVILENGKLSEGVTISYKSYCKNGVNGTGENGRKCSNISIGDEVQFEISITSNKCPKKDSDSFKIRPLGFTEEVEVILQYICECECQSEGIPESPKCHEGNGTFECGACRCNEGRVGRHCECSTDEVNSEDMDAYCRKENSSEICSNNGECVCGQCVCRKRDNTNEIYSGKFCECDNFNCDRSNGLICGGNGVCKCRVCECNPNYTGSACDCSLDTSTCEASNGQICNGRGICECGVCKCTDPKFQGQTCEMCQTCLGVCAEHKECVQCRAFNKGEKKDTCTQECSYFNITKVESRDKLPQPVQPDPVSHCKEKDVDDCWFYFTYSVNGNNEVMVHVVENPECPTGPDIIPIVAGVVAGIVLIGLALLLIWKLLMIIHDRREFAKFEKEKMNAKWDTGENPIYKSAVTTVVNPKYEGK
Integrin alpha-4/beta-1, sequence (P13612 whole entry): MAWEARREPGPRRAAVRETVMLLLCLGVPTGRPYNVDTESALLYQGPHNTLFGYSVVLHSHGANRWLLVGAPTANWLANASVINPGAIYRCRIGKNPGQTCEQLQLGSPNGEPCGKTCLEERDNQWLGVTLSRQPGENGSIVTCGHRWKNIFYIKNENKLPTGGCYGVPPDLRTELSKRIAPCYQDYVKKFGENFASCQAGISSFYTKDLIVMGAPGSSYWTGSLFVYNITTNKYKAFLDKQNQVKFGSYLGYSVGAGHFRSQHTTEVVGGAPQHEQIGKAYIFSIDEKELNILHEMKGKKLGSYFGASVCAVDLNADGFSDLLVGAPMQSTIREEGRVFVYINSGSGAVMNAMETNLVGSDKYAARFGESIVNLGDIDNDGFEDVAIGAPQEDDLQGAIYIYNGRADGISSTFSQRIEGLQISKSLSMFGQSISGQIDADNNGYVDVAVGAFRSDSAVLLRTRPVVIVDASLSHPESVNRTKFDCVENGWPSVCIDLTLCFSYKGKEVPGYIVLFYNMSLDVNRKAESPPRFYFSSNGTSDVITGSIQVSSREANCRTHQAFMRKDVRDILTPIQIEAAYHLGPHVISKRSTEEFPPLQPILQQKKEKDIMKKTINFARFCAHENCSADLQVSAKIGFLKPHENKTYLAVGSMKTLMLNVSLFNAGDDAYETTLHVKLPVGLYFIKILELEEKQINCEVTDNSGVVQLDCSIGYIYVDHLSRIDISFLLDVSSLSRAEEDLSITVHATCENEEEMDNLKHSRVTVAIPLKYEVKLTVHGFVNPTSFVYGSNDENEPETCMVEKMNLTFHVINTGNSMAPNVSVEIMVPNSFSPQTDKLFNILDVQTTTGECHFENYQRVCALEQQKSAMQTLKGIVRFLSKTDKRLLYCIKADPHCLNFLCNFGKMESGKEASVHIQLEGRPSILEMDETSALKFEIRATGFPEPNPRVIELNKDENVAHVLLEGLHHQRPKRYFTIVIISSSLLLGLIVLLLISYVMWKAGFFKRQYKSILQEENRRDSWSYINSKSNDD
For the compound `CC(C)C(=O)Oc1cccc(OC(=O)C(C)C)c1-c1ccc(C[C@@H](NC(=O)[C@@]2(C)CCCN2S(=O)(=O)c2cc(Cl)cc(Cl)c2)C(=O)O)cc1`, the IC50 (usually the concentration that gives 50% inhibition) came to 4.5 nM.

Take `O=C(O)[C@@H](CSSCCNC(=O)C12CC3CC(CC(C3)C1)C2)NC12CC3CC(CC(C3)C1)C2`: it took 4100 nM to reach half-maximal inhibition (IC50). Under `CS(=O)(=O)CCCCC1(C(=O)N[C@H](Cc2ccc(NC(=O)c3c(Cl)cccc3Cl)cc2)C(=O)O)CCC1` stands 6 nM; under `O=C(O)CC[C@H](NCS(=O)(=O)c1ccccc1)C(=O)N[C@@H](Cc1ccc(OCc2c(Cl)cccc2Cl)cc1)C(=O)O`, 2 nM. Under `O=C(Nc1ccc(C[C@H](NC(=O)[C@@H]2C3CCC(CC3)N2S(=O)(=O)c2ccccc2Cl)C(=O)O)cc1)c1cc(Cl)nc(Cl)c1` stands 105 nM; under `CCCNc1c(N[C@@H](Cc2ccc(OCc3c(Cl)cccc3Cl)cc2)C(=O)O)c(=O)c1=O`, 67 nM; under `COc1cccc(OC)c1-c1ccc(C[C@@H](NC(=O)[C@@]2(C)CCN2S(=O)(=O)c2cc(Cl)cc(Cl)c2)C(=O)O)cc1`, 0.07 nM.

Compound `COCCCC[C@@]1(C(=O)N[C@H](Cc2ccc(-c3c(OC)cccc3OC)cc2)C(=O)O)CCCO1` gave an IC50 of 1.27 nM. Under `COc1ccccc1-c1ccc(C[C@H](NC(=O)Cc2ccccc2Cl)C(=O)O)cc1` stands 36.8 nM; under `COc1cccc(OC)c1-c1ccc(C[C@H](NC[C@@H]2CCCN2S(=O)(=O)c2cc(Cl)cc(Cl)c2)C(=O)O)cc1`, 140 nM.

The record behind these values is ChEMBL document CHEMBL1828570, “Modeling the molecular basis for α4β1 integrin antagonism” (Bioorg Med Chem, 2011).
